Results: patent US20230391725A1, “MODULATORS OF THE INTEGRATED STRESS RESPONSE PATHWAY” (Evotec International GmbH, priority 2020, published 2023)
Where a name gives a salt, the structure may show the parent alone.

Tested on: ATF4
Assay: HEK-ATF4 High Content Imaging assay (prevention of Tunicamycin induced ISR)
Assay type: cell-based
Conditions: Homo sapiens, Wild-type HEK293 cells, 6 h incubation, ATF4 signal ratio between nucleus and cytoplasm
Experimental: Example compounds were tested in the HEK-ATF4 High Content Imaging assay to assess their pharmacological potency to prevent Tunicamycin induced ISR. Wild-type HEK293 cells were plated in 384-well imaging assay plates at a density of 12,000 cells per well in growth medium (containing DMEM/F12, 10% FBS, 2 mM L-Glutamine, 100 U/mL Penicillin—100 μg/mL Streptomycin) and incubated at 37° C., 5% CO2. 24 h later, the medium was changed to 50 μL assay medium per well (DMEM/F12, 0.3% FBS, 2mM L-Glutamine, 100 U/mL Penicillin—100 μg/mL Streptomycin). Example compounds were serially diluted in DMSO, spotted into intermediate plates and prediluted with assay medium containing 3.3 […] Tunicamycin to give an 11-fold excess of final assay concentration. In addition to the example compound testing area, the plates also contained multiples of control wells for assay normalization purposes, wells containing Tunicamycin but no example compounds (High control), as well as wells containing neither example compound nor Tunicamycin (Low control). The assay was started by transferring 5 μL from the intermediate plate into the assay plates, followed by incubation for 6 h at 37° C., 5% CO2. Subsequently, cells were fixed (4% PFA in PBS, 20 min at r.t.) and submitted to indirect ATF4 immunofluorescence staining (primary antibody rabbit anti ATF4, clone D4B8, Cell Signaling Technologies; secondary antibody Alexa Fluor 488 goat anti-rabbit IgG (H+L), Thermofisher Scientific). Nuclei were stained using Hoechst dye (Thermofisher Scientific), and plates were imaged on an Opera Phenix High Content imaging platform equipped with 405 nm and 488 nm excitation. Finally, images were analyzed using script based algorithms. The main readout HEK-ATF4 monitored the ATF4 signal ratio between nucleus and cytoplasm. Tunicamycin induced an increase in the overall ATF4 ratio signal, which was prevented by ISR modulating example compounds. In addition, HEK-CellCount readout was derived from counting the number of stained nuclei corresponding to healthy cells. This readout served as an internal toxicity control.

Q: With `O=C(COc1ccc(Cl)c(F)c1)N[C@H]1CC[C@H](C(=O)N[C@H]2CC[C@H](OC(F)(F)F)C2)NC1` (single isomer, unassigned) [Example 53] as the compound, how does the IC50 read?
A: Its IC50 is 1 to 500 nM.

Q: `O=C(COc1ccc(Cl)c(F)c1)N[C@H]1CC[C@H](C(=O)N[C@@H]2CC[C@@H](OC(F)(F)F)C2)NC1` (single isomer, unassigned) [Example 54] was tested. Which IC50 did it give?
A: The IC50 was 500 to 2000 nM.

Q: Which IC50 does the source give for `O=C(COc1ccc(Cl)c(F)c1)N[C@H]1CC[C@H](C(=O)NCCCOC(F)(F)F)NC1` [Example 2, (2R,5S)-5-[2-(4-chloro-3-fluorophenoxy)acetamido]-N-[3-(trifluoromethoxy)propyl]piperidine-2-carboxamide hydrochloride] here?
A: Its IC50 is 2000 to 15000 nM.

Q: How did the IC50 turn out when `O=C(COc1ccc(Cl)c(F)c1)N[C@H]1CC[C@H](C(=O)NCc2ccc(C(F)(F)F)cc2)NC1` [Example 4, (2R,5S)-5-[2-(4-chloro-3-fluorophenoxy)acetamido]-N-{[4-(trifluoromethyl)phenyl]methyl}piperidine-2-carboxamide] was run?
A: Its IC50 is 1 to 500 nM.

Q: With `O=C(COc1ccc(Cl)c(F)c1)N[C@H]1CC[C@H](C(=O)N2CC(OCCOC(F)(F)F)C2)NC1` [Example 5, 2-(4-chloro-3-fluorophenoxy)-N-[(3S,6R)-6-{3-[2-(trifluoromethoxy)ethoxy]azetidine-1-carbonyl}piperidin-3-yl]acetamide] as the compound, how does the IC50 read?
A: Its IC50 is 2000 to 15000 nM.

Q: How did the IC50 turn out when `O=C(COc1ccc(Cl)c(F)c1)N[C@H]1CC[C@H](C(=O)NOCCOC(F)(F)F)NC1` [Example 6, (2R,5S)-5-[2-(4-chloro-3-fluorophenoxy)acetamido]-N-[2-(trifluoromethoxy)ethoxy]piperidine-2-carboxamide] was run?
A: The IC50 was 2000 to 15000 nM.

Q: Which IC50 does the source give for `O=C(COc1ccc(Cl)c(F)c1)N[C@H]1CC[C@H](C(=O)Nc2ccc(Cl)cc2)NC1` [Example 8, (2R,5S)-5-[2-(4-chloro-3-fluorophenoxy)acetamido]-N-(4-chlorophenyl)piperidine-2-carboxamide] here?
A: Its IC50 is 1 to 500 nM.

Q: With `O=C(COc1ccc(Cl)c(F)c1)N[C@@H]1CC[C@@H](C(=O)Nc2ccc(Cl)cc2)NC1` [Example 9, (2S,5R)-5-[2-(4-chloro-3-fluorophenoxy)acetamido]-N-(4-chlorophenyl)piperidine-2-carboxamide] as the compound, how does the IC50 read?
A: Its IC50 is 2000 to 15000 nM.

Q: Which IC50 does the source give for `O=C(COc1ccc(Cl)c(F)c1)N[C@H]1CC[C@H](C(=O)Nc2ccccc2)NC1` [Example 10, (2R,5S)-5-[2-(4-chloro-3-fluorophenoxy)acetamido]-N-phenylpiperidine-2-carboxamide] here?
A: The IC50 was 2000 to 15000 nM.

Q: With `O=C(COc1ccc(Cl)c(F)c1)N[C@H]1CC[C@H](C(=O)Nc2cccc(Cl)c2)NC1` [Example 11, (2R,5S)-5-[2-(4-chloro-3-fluorophenoxy)acetamido]-N-(3-chlorophenyl)piperidine-2-carboxamide] as the compound, how does the IC50 read?
A: Its IC50 is 1 to 500 nM.

Q: With `O=C(COc1ccc(Cl)c(F)c1)N[C@H]1CC[C@H](C(=O)Nc2cccc(C(F)(F)F)c2)NC1` [Example 12, (2R,5S)-5-[2-(4-chloro-3-fluorophenoxy)acetamido]-N-[3-(trifluoromethyl)phenyl]piperidine-2-carboxamide] as the compound, how does the IC50 read?
A: The IC50 was 1 to 500 nM.

Q: With `O=C(COc1ccc(Cl)c(F)c1)N[C@H]1CC[C@H](C(=O)Nc2cccc(OC(F)(F)F)c2)NC1` [Example 13, (2R,5S)-5-[2-(4-chloro-3-fluorophenoxy)acetamido]-N-[3-(trifluoromethoxy)phenyl]piperidine-2-carboxamide] as the compound, how does the IC50 read?
A: The IC50 was 1 to 500 nM.

Q: With `O=C(COc1ccc(Cl)c(F)c1)N[C@H]1CC[C@H](C(=O)NCc2ccc(Cl)cn2)NC1` [Example 14, (2R,5S)-5-[2-(4-chloro-3-fluorophenoxy)acetamido]-N-[(5-chloropyridin-2-yl)methyl]piperidine-2-carboxamide] as the compound, how does the IC50 read?
A: The IC50 was 2000 to 15000 nM.

Q: `O=C(COc1ccc(Cl)c(F)c1)N[C@H]1CC[C@H](C(=O)N[C@H]2CC[C@@H](OC(F)(F)F)CC2)NC1` [Example 15, (2R,5S)-5-[2-(4-chloro-3-fluorophenoxy)acetamido]-N-[(1s,4s)-4-(trifluoromethoxy)cyclohexyl]piperidine-2-carboxamide] was tested. Which IC50 did it give?
A: The IC50 was 2000 to 15000 nM.

Q: How did the IC50 turn out when `COc1cc(Cl)ccc1NC(=O)[C@H]1CC[C@H](NC(=O)COc2ccc(Cl)c(F)c2)CN1` [Example 16, (2R,5S)-N-(4-chloro-2-methoxyphenyl)-5-[2-(4-chloro-3-fluorophenoxy)acetamido]piperidine-2-carboxamide] was run?
A: The IC50 was 2000 to 15000 nM.

Q: With `O=C(COc1ccc(Cl)c(F)c1)N[C@H]1CC[C@H](C(=O)NCc2ccc(C(F)(F)F)o2)NC1` [Example 17, (2R,5S)-5-[2-(4-chloro-3-fluorophenoxy)acetamido]-N-{[5-(trifluoromethyl)furan-2-yl]methyl}piperidine-2-carboxamide] as the compound, how does the IC50 read?
A: Its IC50 is 2000 to 15000 nM.

Q: Which IC50 does the source give for `O=C(COc1ccc(Cl)c(F)c1)N[C@H]1CC[C@H](C(=O)NCc2cc(C(F)(F)F)co2)NC1` [Example 18, (2R,5S)-5-[2-(4-chloro-3-fluorophenoxy)acetamido]-N-{[4-(trifluoromethyl)furan-2-yl]methyl}piperidine-2-carboxamide] here?
A: The IC50 was 1 to 500 nM.

Q: Which IC50 does the source give for `O=C(COc1ccc(Cl)c(F)c1)N[C@H]1CC[C@H](C(=O)NC[C@H]2CC[C@@H](C(F)(F)F)CC2)NC1` [Example 19, (2R,5S)-5-[2-(4-chloro-3-fluorophenoxy)acetamido]-N-{[(1s,4s)-4-(trifluoromethyl)cyclohexyl]methyl}piperidine-2-carboxamide] here?
A: Its IC50 is 2000 to 15000 nM.

Q: Which IC50 does the source give for `COc1cccc(NC(=O)[C@H]2CC[C@H](NC(=O)COc3ccc(Cl)c(F)c3)CN2)c1` [Example 20, (2R,5S)-5-[2-(4-chloro-3-fluorophenoxy)acetamido]-N-(3-methoxyphenyl)piperidine-2-carboxamide] here?
A: The IC50 was 2000 to 15000 nM.

Q: How did the IC50 turn out when `O=C(COc1ccc(Cl)c(F)c1)N[C@H]1CC[C@H](C(=O)Nc2ccc(F)c(C(F)(F)F)c2)NC1` [Example 21, (2R,5S)-5-[2-(4-chloro-3-fluorophenoxy)acetamido]-N-[4-fluoro-3-(trifluoromethyl)phenyl]piperidine-2-carboxamide] was run?
A: Its IC50 is 1 to 500 nM.

Q: For `O=C(COc1ccc(Cl)c(F)c1)N[C@H]1CC[C@H](C(=O)Nc2cncc(C(F)(F)F)c2)NC1` [Example 22, (2R,5S)-5-[2-(4-chloro-3-fluorophenoxy)acetamido]-N-[5-(trifluoromethyl)pyridin-3-yl]piperidine-2-carboxamide], which IC50 is on record?
A: Its IC50 is 1 to 500 nM.

Q: How did the IC50 turn out when `O=C(COc1ccc(Cl)c(F)c1)N[C@H]1CC[C@H](C(=O)Nc2cccc(F)c2)NC1` [Example 23, (2R,5S)-5-[2-(4-chloro-3-fluorophenoxy)acetamido]-N-(3-fluorophenyl)piperidine-2-carboxamide] was run?
A: Its IC50 is 500 to 2000 nM.

Q: With `O=C(COc1ccc(Cl)c(F)c1)N[C@H]1CC[C@H](C(=O)Nc2cccc(C(F)F)c2)NC1` [Example 24, (2R,5S)-5-[2-(4-chloro-3-fluorophenoxy)acetamido]-N-[3-(difluoromethyl)phenyl]piperidine-2-carboxamide] as the compound, how does the IC50 read?
A: The IC50 was 1 to 500 nM.

Q: Which IC50 does the source give for `O=C(COc1ccc(Cl)c(F)c1)N[C@H]1CC[C@H](C(=O)Nc2ccc(Cl)cn2)NC1` [Example 25, (2R,5S)-5-[2-(4-chloro-3-fluorophenoxy)acetamido]-N-(5-chloropyridin-2-yl)piperidine-2-carboxamide] here?
A: The IC50 was 500 to 2000 nM.

Q: Which IC50 does the source give for `Cc1c(NC(=O)[C@H]2CC[C@H](NC(=O)COc3ccc(Cl)c(F)c3)CN2)cnn1CC(F)(F)F` [Example 26, (2R,5S)-5-[2-(4-chloro-3-fluorophenoxy)acetamido]-N-[5-methyl-1-(2,2,2-trifluoroethyl)-1H-pyrazol-4-yl]piperidine-2-carboxamide] here?
A: The IC50 was 2000 to 15000 nM.
